Here are results for eleven molecules from patent US12630534B2 (TAKEDA PHARMACEUTICAL COMPANY LIMITED, priority 2020, dated 2026).

For the test, the target named is T1, human GPR139 (Homo sapiens, UniProt Q6DWJ6).
T1 construct: expressed in transfected cells; host or cells: CHO-TREx (Life Technologies) cells, expression induced with doxycycline
T1 sequence (Q6DWJ6 1-353): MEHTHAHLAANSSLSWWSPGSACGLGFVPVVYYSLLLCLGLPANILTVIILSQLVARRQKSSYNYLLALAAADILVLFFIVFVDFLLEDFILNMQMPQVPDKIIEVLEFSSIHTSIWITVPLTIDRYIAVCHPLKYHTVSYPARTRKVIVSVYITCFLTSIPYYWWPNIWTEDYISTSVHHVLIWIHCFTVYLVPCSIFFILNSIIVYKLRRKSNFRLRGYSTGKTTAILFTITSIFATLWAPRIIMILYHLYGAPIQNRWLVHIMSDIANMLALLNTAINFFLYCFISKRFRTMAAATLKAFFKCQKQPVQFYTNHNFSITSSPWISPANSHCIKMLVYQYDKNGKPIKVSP
Briefly: Inhibition rate of the amount of IP1 in GPR139-expressed CHO cells (inverse agonist assay, Test Example 2). It counts as cell-based. The settings on record: CHO, relative value, inhibition rate of Example Compound 2 in Test Example 1 defined as 100%. The procedure:
The measurement of IP1 was made using an IP-ONE HTFR assay kit (cis-bio) and CHO-TREx (Life Technologies) cells stably transfected with GPR139. The CHO-TREx cells expressed human GPR139 with a tetracycline-inducing element. The cells were cultured in a medium containing F12K and 10% tetracycline-free FBS, and the expression of human GPR139 was induced over the course of 17 hours under conditions of 37° C. and 5% CO2 in the presence of 2 μg/mL of doxycycline (Clontech, 631311) in the growth medium on the day before assay. On the day of the test, after the cells were washed with 10 mL of PBS, the cells were detached with TrypLE Express (Life Technologies) and centrifuged at 1,000 rpm to form pellets, and a cell suspension was then prepared using a stimulation buffer (cis-bio, included in the IP-ONE HTRF assay kit).
The compound was diluted with the stimulation buffer, and 4 μL was added to a 384-well white assay plate (Greiner). The cell suspension was added so that there were 2000 cells per well, and the assay plate was left to stand for 40 minutes at 37° C. Equal amounts of IP1-d2 and Ab-Crp solutions (both available from cis-bio, included in the IP-ONE HTRF assay kit) prepared with a lysis buffer (cis-bio, included in the IP-ONE HTRF assay kit) were mixed, and 4 μL was added to the assay plate and left to stand for one hour at room temperature. After the fluorescence strengths of two wavelengths were measured by the HTRF settings of Envision (PerkinElmer), the value of Ratio={(Signal 665 nm)/(Signal 615 nm)}×10000 was calculated.
Measurement of the Inhibition Rate of the Amount of IP1 in GPR139-Expressed CHO Cells (Inverse Agonist Assay)
The activities of the compounds of Examples 1 and 3 to 167 were expressed as relative values in Table 2 by measuring the inhibition rate of the amount of IP1 with the same method as in Test Example 1 and defining the inhibition rate of the amount of IP1 of Example Compound 2 in Test Example 1 as […].
A word on the inhibition: it is the change of the read-out against control, counted positive when it falls. For the molecule `CCn1cc(Cn2c(C)cn(-c3cc(N4CCOC(C)(C)C4)cc(C4CC4)c3F)c2=O)cn1` [Example 164, 1-[3-cyclopropyl-5-(2,2-dimethylmorpholin-4-yl)-2-fluorophenyl]-3-[(1-ethyl-1H-pyrazol-4-yl)methyl]-4-methyl-1,3-dihydro-2H-imidazol-2-one], the inhibition at 30 µM was 97%.

For the molecule `CCn1cc(Cn2cc(C)n(-c3cc(OCC4(F)CCC4)cc(C(F)(F)F)c3)c2=O)cn1` [Example 52, 1-[(1-ethyl-1H-pyrazol-4-yl)methyl]-3-{3-[(1-fluorocyclobutyl)methoxy]-5-(trifluoromethyl)phenyl}-4-methyl-1,3-dihydro-2H-imidazol-2-one], the inhibition at 30 µM is 99%. Then `CCn1cc(Cn2c(C)cn(-c3cc(N4CCO[C@H](C)C4)cc(OCC(F)(F)F)c3F)c2=O)cn1` [Example 55, 3-[(1-ethyl-1H-pyrazol-4-yl)methyl]-1-{2-fluoro-5-[(2R)-2-methylmorpholin-4-yl]-3-(2,2,2-trifluoroethoxy)phenyl}-4-methyl-1,3-dihydro-2H-imidazol-2-one], with 101%; and `Cc1cn(-c2cc(N3CCOC(C)(C)C3)cc(C(F)F)c2F)c(=O)n1Cc1cnn(C(C)C)c1` [Example 79, 1-[3-(difluoromethyl)-5-(2,2-dimethylmorpholin-4-yl)-2-fluorophenyl]-4-methyl-3-{[1-(propan-2-yl)-1H-pyrazol-4-yl]methyl}-1,3-dihydro-2H-imidazol-2-one], with 98%; and `CCn1cc(Cn2ccn(-c3cc(N4CCO[C@H](C)C4)cc(Cl)c3F)c2=O)cn1` [Example 32, 1-{3-chloro-2-fluoro-5-[(2R)-2-methylmorpholin-4-yl]phenyl}-3-[(1-ethyl-1H-pyrazol-4-yl)methyl]-1,3-dihydro-2H-imidazol-2-one], with 98%. As to `CCn1cc(Cn2ccn(-c3cc(OC[C@@H]4CCCO4)cc(C(F)(F)F)c3F)c2=O)cn1` [Example 118, 1-[(1-ethyl-1H-pyrazol-4-yl)methyl]-3-[2-fluoro-5-{[(2S)-oxolan-2-yl]methoxy}-3-(trifluoromethyl)phenyl]-1,3-dihydro-2H-imidazol-2-one], the inhibition at 30 µM is 100%.

Take `Cc1nn(-c2cc(N3CCOC(C)(C)C3)cc(C(F)(F)F)c2F)c(=O)n1Cc1cnn(C(C)C)c1` [Example 93]: the inhibition at 30 µM was 99%. Under `CCn1cc(Cn2cc(C)n(-c3cc(C(F)(F)F)cc(OCC4CCCO4)n3)c2=O)cn1` (centres unmarked) [Example 106, 1-[(1-ethyl-1H-pyrazol-4-yl)methyl]-4-methyl-3-{6-[(oxolan-2-yl)methoxy]-4-(trifluoromethyl)pyridin-2-yl}-1,3-dihydro-2H-imidazol-2-one] stands 102%.

With `CCn1cc(Cn2cc(C)n(-c3cc(OCC4CC4)cc(C(F)(F)F)c3)c2=O)cn1` [Example 17, 3-[3-(cyclopropylmethoxy)-5-(trifluoromethyl)phenyl]-1-[(1-ethyl-1H-pyrazol-4-yl)methyl]-4-methyl-1,3-dihydro-2H-imidazol-2-one], the inhibition at 30 µM worked out at 99%. Under `CCn1cc(Cn2c(C)c(C)n(-c3cc(C(F)(F)F)cc(OC[C@@H]4CCCO4)n3)c2=O)cn1` [Example 115, 1-[(1-ethyl-1H-pyrazol-4-yl)methyl]-4,5-dimethyl-3-[6-{[(2S)-oxolan-2-yl]methoxy}-4-(trifluoromethyl)pyridin-2-yl]-1,3-dihydro-2H-imidazol-2-one] stands 103%; under `CCn1cc(Cn2cc(C)n(-c3cc(C(F)(F)F)cc(N(C)C4CCOCC4)n3)c2=O)cn1` [Example 86, 1-[(1-ethyl-1H-pyrazol-4-yl)methyl]-4-methyl-3-{6-[methyl(oxan-4-yl)amino]-4-(trifluoromethyl)pyridin-2-yl}-1,3-dihydro-2H-imidazol-2-one], 101%.
